The values below come from patent publication US20260102501A1, “ANTI-CANCER NUCLEAR HORMONE RECEPTOR-TARGETING COMPOUNDS” (Nuvation Bio Inc., priority 2022, published 2026).

In general, IC50 refers to the midpoint of a concentration-inhibition curve.

Experiment [1] concerns LNCap cells. Put plainly: Cell viability assay (CellTiterGlo). Type of experiment: cell-based. As to conditions: Homo sapiens, 144 h, 6 days incubation, CellTiterGlo, read-out: LNCap (IC50).
Experiment [2] addresses T1, AR (cytosol from LnCaP cells) (Homo sapiens, UniProt P10275, T878A).
T1 sequence (P10275 1-920 T878A): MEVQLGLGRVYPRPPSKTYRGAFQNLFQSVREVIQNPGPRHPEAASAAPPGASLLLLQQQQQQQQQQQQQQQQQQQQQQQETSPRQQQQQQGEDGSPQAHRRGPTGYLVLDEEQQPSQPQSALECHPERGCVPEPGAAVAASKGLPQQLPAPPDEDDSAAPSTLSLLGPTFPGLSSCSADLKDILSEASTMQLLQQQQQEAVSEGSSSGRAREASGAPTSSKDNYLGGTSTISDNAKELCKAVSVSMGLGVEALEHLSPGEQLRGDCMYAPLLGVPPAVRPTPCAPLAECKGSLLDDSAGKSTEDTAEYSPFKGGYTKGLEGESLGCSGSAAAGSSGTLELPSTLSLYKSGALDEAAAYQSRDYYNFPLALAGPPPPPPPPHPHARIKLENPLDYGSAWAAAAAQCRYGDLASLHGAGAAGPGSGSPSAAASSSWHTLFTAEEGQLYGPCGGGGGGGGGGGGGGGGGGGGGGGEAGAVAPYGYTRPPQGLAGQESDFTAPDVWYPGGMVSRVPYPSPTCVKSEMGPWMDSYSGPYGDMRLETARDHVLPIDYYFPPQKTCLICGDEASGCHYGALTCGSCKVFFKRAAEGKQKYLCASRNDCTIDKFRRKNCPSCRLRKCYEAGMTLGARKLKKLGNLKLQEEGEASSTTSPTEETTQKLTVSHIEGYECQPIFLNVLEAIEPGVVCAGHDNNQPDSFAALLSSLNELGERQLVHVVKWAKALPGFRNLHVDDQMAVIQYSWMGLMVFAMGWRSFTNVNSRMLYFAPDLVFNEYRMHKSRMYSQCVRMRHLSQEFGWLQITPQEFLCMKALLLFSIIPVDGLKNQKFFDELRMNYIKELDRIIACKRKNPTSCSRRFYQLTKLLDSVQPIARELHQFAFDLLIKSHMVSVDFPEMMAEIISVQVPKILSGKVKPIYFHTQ
Put plainly: AR binding assay (3H-R1881 displacement).
Description: The plate was then centrifuged at 3000 rpm for 30 minutes at 4° C.

The target of experiment [3] is T2, GR (cytosol from IM-9 cells) (Homo sapiens, UniProt P04150).
T2 sequence (P04150 1-777): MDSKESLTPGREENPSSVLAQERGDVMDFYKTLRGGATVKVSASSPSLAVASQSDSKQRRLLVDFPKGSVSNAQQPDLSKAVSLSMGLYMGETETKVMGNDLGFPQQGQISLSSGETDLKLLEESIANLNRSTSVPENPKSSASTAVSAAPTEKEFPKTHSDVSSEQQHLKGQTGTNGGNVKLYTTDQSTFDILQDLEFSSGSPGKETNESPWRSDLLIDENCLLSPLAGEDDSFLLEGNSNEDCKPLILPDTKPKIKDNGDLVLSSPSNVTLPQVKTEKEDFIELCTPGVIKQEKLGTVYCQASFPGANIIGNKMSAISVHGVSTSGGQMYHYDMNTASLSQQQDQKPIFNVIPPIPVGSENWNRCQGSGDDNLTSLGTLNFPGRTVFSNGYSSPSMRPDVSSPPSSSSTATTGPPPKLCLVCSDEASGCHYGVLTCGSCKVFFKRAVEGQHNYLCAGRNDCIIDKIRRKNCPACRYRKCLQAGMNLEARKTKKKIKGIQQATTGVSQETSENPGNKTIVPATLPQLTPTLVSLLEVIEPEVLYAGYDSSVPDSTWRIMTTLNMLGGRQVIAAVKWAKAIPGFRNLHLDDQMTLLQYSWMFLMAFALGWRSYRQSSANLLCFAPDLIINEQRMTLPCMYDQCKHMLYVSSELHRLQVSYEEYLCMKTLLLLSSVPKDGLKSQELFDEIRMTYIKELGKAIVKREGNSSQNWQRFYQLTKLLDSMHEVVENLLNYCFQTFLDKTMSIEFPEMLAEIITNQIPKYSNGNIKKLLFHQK
Kind of experiment: GR binding assay (3H-Dexamethasone displacement).

For experiment [4], the target named is T3, ligand binding domain of the glucocorticoid receptor (HEK293 cells stably expressing) (Homo sapiens, UniProt P04150).
T3 sequence (P04150 524-758 limits assumed): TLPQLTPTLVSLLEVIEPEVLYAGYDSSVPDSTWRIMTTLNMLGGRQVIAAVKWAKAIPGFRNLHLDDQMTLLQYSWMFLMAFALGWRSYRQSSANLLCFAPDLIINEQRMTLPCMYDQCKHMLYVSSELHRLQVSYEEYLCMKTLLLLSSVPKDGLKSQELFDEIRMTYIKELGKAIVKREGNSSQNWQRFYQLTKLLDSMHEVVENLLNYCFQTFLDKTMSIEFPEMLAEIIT
Kind of experiment: GR antagonism assay (luciferase reporter).
Description: HEK293 cells stably expressing the ligand binding domain of the glucocorticoid receptor were seeded at a density of 40000 cells/well in the assay plate. The assay plate was then incubated at 37° C., 5% CO2 for 30 minutes. Dexamethasone was added to the assay plate at 1.5 nM final concentration and the assay plate incubated at 37° C., 5% CO2 for 20 h. After the incubation period, Dual-glo luciferase reagent was added to the assay plate and mixed at room temperature for 20 minutes on an orbital shaker, before reading out on the En Vision plate reader. 50 μL of Stop & Glo reagent was added to assay plate, mixed at room temperature for 20 minutes, and read on the Envision plate reader.

Regarding `CC[C@@]1(O)C(=O)OCc2c1cc1n(c2=O)Cc2c-1nc1cc(F)c(C)c3c1c2[C@@H](N(C)C(=O)COCC1CCN(CCCCCCCN(C)c2ccc([C@H]4C[C@@]5(C)[C@@H](CC[C@]5(OC(C)=O)C(C)=O)[C@@H]5CCC6=CC(=O)CCC6=C54)cc2)CC1)CC3` [Compound 55, (8S,11R,13S,14S,17R)-17-acetyl-11-(4-((7-(4-((2-(((1S,9S)-9-ethyl-5-fluoro-9-hydroxy-4-methyl-10,13-dioxo-2,3,9,10,13,15-hexahydro-1H,12H-benzo[de]pyrano[3′,4′:6,7]indolizino[1,2-b]quinolin-1-yl)(methyl)amino)-2-oxoethoxy)methyl)piperidin-1-yl)heptyl)(methyl)amino)phenyl)-13-methyl-3-oxo-2,3,6,7,8,11,12,13,14,15,16,17-dodecahydro-1H-cyclopenta[a]phenanthren-17-yl acetate], the IC50 in experiment [1] is 0.101 to 1 µM; in experiment [2] it was 0.01 to 0.1 µM; in experiment [3], less than 0.01 µM; in experiment [4] it was 0.01 to 0.1 µM.
